Read-outs that look alike come from different tables or passages of the source.
How the values were obtained:
CDK2/Cyclin E1 = CDK2/Cyclin E1 (Homo sapiens, UniProt P24941); assay: NanoBRET live-cell target engagement, CDK2-NanoLuc/Cyclin E1 in HEK-293; assay type: binding; conditions: 10µM
CDK3/Cyclin E1 = CDK3/Cyclin E1 (Homo sapiens, UniProt Q00526); assay: NanoBRET live-cell target engagement, CDK3-NanoLuc/Cyclin E1 in HEK-293; assay type: binding; conditions: 10µM
CDK18/Cyclin Y = CDK18/Cyclin Y (Homo sapiens, UniProt Q07002); assay: NanoBRET live-cell target engagement, CDK18-NanoLuc/Cyclin Y in HEK-293; assay type: binding; conditions: 10µM
CDK4/Cyclin D1 = CDK4/Cyclin D1 (Homo sapiens, UniProt P11802); assay: NanoBRET live-cell target engagement, NanoLuc-CDK4/Cyclin D1 in HEK-293; assay type: binding; conditions: 10µM
CDK6/Cyclin D1 = CDK6/Cyclin D1 (Homo sapiens, UniProt Q00534); assay: NanoBRET live-cell target engagement, NanoLuc-CDK6/Cyclin D1 in HEK-293; assay type: binding; conditions: 10µM
CDK17/Cyclin Y = CDK17/Cyclin Y (Homo sapiens, UniProt Q00537); assay: NanoBRET live-cell target engagement, CDK17-NanoLuc/Cyclin Y in HEK-293; assay type: binding; conditions: 10µM
CDK10/Cyclin L2 = CDK10/Cyclin L2 (Homo sapiens, UniProt Q15131); assay: NanoBRET live-cell target engagement, CDK10-NanoLuc/Cyclin L2 in HEK-293; conditions: 10µM
CDK20/Cyclin H = CDK20/Cyclin H (Homo sapiens, UniProt Q8IZL9); assay: NanoBRET live-cell target engagement, NanoLuc-CDK20/Cyclin H in HEK-293; assay type: binding; conditions: 10µM
CDK11A/Cyclin L2 = biological target: T1, CDK11A/Cyclin L2 (Homo sapiens, UniProt Q9UQ88); assay: NanoBRET live-cell target engagement, CDK11A-NanoLuc/Cyclin L2 in HEK-293; assay type: binding; conditions: 10µM
T1 sequence (Q9UQ88 1-783): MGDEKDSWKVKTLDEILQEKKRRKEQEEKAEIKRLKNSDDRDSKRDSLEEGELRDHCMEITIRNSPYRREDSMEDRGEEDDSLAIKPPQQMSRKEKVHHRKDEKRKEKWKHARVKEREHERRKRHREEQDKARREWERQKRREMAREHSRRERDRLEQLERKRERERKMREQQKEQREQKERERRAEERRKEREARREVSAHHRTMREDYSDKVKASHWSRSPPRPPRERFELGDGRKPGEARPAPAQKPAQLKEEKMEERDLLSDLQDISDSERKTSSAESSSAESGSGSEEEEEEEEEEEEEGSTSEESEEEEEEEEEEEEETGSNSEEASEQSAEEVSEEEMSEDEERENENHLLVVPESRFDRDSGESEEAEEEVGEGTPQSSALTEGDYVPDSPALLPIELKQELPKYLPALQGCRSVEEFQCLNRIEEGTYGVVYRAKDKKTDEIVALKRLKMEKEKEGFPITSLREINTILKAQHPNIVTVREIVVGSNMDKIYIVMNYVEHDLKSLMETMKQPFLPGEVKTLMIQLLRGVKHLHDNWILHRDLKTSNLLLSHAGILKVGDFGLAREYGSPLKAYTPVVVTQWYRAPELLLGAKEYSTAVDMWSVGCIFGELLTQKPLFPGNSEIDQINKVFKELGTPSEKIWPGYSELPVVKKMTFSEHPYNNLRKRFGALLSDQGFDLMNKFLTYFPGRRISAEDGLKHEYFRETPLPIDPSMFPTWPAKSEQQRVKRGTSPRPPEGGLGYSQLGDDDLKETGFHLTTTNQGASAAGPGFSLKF

CDK12/Cyclin K = CDK12/Cyclin K (Homo sapiens, UniProt Q9NYV4); assay: NanoBRET live-cell target engagement, CDK12-NanoLuc/Cyclin K in HEK-293; assay type: binding; conditions: 10µM
CDK14/Cyclin Y = CDK14/Cyclin Y (Homo sapiens, UniProt O94921); assay: NanoBRET live-cell target engagement, CDK14-NanoLuc/Cyclin Y in HEK-293; assay type: binding; conditions: 10µM
CDK9/Cyclin K = CDK9/Cyclin K (Homo sapiens, UniProt P50750); assay: NanoBRET live-cell target engagement, NanoLuc-CDK9/Cyclin K in HEK-293; assay type: binding; conditions: 10µM
CDK5/CDK5R1 = CDK5/CDK5R1 (Homo sapiens, UniProt Q00535); assay: NanoBRET live-cell target engagement, CDK5-NanoLuc/CDK5R1 in HEK-293; assay type: binding; conditions: 10µM
CDK7 = CDK7 (Homo sapiens, UniProt P50613); assay: NanoBRET live-cell target engagement, NanoLuc-CDK7 in HEK-293; assay type: binding; conditions: 10µM
CDK16/Cyclin Y = CDK16/Cyclin Y (Homo sapiens, UniProt Q00536); assay: NanoBRET live-cell target engagement, CDK16-NanoLuc/Cyclin Y in HEK-293; assay type: binding; conditions: 10µM
CDK8/Cyclin C = CDK8/Cyclin C (Homo sapiens, UniProt P49336); assay: NanoBRET live-cell target engagement, NanoLuc-CDK8/Cyclin C in HEK-293; assay type: binding; conditions: for IC50: read-out: CDK8/C IC50
CDK11B/Cyclin L2 = CDK11B/Cyclin L2 (Homo sapiens, UniProt P21127); assay: NanoBRET live-cell target engagement, CDK11B-NanoLuc/Cyclin L2 in HEK-293; assay type: binding; conditions: 10µM
CDK13/Cyclin K = CDK13/Cyclin K (Homo sapiens, UniProt Q14004); assay: NanoBRET live-cell target engagement, CDK13-NanoLuc/Cyclin K in HEK-293; assay type: binding; conditions: 10µM
CDK15/Cyclin Y = CDK15/Cyclin Y (Homo sapiens, UniProt Q96Q40); assay: NanoBRET live-cell target engagement, NanoLuc-CDK15/Cyclin Y in HEK-293; assay type: binding; conditions: 10µM
CDK1/Cyclin E1 = CDK1/Cyclin E1 (Homo sapiens, UniProt P06493); assay: NanoBRET live-cell target engagement, CDK1-NanoLuc/Cyclin E1 in HEK-293; assay type: binding; conditions: 10µM
CDK19/Cyclin C = CDK19/Cyclin C (Homo sapiens, UniProt Q9BWU1); assay: NanoBRET live-cell target engagement, NanoLuc-CDK19/Cyclin C in HEK-293
CDK19/Cyclin C, sequence (Q9BWU1 whole entry): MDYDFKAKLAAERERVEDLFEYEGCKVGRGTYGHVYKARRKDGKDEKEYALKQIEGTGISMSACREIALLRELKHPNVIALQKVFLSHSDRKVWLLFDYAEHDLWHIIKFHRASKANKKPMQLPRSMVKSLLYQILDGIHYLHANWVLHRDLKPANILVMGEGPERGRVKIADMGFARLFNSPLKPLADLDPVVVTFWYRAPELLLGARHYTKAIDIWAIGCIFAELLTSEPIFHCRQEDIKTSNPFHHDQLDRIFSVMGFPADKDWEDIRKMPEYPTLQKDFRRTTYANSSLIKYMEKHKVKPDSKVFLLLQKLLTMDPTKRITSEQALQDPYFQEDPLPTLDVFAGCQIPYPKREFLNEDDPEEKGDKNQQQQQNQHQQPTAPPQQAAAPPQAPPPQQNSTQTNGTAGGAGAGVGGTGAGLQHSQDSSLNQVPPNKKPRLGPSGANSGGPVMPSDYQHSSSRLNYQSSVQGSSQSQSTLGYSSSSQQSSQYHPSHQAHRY
CDK19/Cyclin C, sequence (P24863 whole entry partner): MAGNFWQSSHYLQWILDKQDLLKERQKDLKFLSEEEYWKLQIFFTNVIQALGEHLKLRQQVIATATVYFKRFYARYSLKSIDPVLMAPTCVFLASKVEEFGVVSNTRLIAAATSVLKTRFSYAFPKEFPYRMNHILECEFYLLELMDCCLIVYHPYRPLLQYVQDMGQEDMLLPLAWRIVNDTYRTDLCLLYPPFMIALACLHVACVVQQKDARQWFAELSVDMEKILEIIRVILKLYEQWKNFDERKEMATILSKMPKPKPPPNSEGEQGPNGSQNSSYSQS

CDK8/Cyclin C, sequence (P49336 whole entry): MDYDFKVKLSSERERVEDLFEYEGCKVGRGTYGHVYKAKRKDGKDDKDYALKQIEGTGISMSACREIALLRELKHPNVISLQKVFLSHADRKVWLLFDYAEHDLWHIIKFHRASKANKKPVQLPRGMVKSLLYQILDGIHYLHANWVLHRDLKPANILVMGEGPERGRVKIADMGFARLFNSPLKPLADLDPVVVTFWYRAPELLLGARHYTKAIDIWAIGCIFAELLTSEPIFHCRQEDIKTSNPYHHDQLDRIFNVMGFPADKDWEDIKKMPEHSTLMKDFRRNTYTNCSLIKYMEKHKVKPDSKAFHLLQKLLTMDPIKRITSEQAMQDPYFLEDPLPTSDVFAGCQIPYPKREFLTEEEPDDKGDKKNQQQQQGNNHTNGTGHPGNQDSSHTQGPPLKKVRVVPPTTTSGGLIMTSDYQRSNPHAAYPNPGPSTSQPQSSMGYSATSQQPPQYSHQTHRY
CDK8/Cyclin C, sequence (P24863 whole entry partner): as the sequence (P24863 whole entry partner) above
CDK10/Cyclin L2, sequence (Q15131 whole entry): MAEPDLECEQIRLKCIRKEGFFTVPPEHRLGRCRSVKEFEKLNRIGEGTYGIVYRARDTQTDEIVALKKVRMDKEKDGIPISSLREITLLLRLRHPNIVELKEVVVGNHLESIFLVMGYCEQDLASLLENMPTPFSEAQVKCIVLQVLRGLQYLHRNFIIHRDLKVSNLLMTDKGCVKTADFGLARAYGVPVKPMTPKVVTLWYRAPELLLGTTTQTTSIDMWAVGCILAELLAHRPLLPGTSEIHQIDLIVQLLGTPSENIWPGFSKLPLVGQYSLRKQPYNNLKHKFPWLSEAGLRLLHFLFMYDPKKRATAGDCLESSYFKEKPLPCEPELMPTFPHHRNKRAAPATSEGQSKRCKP
CDK1/Cyclin E1, sequence (P06493 whole entry): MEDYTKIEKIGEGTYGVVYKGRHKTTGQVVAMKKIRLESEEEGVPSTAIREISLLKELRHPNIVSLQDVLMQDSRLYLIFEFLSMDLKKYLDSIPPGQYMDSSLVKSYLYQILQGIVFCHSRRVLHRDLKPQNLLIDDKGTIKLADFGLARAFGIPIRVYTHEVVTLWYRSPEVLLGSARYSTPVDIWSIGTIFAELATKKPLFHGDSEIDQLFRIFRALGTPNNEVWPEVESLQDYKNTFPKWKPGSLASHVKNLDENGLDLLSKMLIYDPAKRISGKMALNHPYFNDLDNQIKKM
CDK1/Cyclin E1, sequence (P24864 whole entry partner): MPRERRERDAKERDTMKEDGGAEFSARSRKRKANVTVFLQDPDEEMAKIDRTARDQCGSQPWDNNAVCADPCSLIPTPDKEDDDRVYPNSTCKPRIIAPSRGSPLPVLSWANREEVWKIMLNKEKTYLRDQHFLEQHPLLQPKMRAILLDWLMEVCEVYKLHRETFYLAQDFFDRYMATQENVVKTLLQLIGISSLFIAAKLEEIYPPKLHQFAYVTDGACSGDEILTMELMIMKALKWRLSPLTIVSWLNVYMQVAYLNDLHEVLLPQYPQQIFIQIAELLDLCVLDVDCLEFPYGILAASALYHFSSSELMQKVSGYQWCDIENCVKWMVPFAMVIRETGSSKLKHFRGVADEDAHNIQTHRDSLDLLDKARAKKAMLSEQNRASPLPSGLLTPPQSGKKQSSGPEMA
CDK4/Cyclin D1, sequence (P11802 whole entry): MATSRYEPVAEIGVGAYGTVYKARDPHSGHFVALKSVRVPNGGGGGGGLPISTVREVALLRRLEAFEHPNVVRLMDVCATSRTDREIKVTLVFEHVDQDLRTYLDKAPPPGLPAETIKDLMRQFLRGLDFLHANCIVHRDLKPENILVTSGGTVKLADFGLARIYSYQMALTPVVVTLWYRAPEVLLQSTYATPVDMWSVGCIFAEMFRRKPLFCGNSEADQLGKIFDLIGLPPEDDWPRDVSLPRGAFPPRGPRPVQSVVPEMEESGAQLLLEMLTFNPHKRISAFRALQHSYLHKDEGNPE
CDK4/Cyclin D1, sequence (P24385 whole entry partner): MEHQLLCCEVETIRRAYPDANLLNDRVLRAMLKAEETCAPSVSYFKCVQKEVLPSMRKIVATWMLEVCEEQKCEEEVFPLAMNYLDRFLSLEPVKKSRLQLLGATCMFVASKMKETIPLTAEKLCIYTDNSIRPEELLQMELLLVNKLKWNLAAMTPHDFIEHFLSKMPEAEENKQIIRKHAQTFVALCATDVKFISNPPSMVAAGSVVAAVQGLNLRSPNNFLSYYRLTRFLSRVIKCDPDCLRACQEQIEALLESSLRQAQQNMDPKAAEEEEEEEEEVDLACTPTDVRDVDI
CDK13/Cyclin K, sequence (O75909 whole entry): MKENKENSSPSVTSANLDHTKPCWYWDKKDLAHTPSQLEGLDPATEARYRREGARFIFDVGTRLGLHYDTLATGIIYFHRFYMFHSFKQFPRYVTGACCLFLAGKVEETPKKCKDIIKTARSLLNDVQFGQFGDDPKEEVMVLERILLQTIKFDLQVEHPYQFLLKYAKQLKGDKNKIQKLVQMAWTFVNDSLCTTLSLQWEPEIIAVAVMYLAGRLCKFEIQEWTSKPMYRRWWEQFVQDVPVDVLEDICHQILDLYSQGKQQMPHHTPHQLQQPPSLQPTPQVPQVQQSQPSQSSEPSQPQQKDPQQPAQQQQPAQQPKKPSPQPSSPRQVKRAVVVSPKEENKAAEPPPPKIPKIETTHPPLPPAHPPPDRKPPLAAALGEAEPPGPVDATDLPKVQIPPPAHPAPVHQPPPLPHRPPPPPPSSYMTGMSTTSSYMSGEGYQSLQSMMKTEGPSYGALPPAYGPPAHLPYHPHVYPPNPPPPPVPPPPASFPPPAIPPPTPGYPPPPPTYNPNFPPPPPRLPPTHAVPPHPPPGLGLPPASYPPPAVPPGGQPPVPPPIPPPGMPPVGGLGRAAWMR
CDK13/Cyclin K, sequence (Q14004 other isoform, or with tags, fused parts or gaps): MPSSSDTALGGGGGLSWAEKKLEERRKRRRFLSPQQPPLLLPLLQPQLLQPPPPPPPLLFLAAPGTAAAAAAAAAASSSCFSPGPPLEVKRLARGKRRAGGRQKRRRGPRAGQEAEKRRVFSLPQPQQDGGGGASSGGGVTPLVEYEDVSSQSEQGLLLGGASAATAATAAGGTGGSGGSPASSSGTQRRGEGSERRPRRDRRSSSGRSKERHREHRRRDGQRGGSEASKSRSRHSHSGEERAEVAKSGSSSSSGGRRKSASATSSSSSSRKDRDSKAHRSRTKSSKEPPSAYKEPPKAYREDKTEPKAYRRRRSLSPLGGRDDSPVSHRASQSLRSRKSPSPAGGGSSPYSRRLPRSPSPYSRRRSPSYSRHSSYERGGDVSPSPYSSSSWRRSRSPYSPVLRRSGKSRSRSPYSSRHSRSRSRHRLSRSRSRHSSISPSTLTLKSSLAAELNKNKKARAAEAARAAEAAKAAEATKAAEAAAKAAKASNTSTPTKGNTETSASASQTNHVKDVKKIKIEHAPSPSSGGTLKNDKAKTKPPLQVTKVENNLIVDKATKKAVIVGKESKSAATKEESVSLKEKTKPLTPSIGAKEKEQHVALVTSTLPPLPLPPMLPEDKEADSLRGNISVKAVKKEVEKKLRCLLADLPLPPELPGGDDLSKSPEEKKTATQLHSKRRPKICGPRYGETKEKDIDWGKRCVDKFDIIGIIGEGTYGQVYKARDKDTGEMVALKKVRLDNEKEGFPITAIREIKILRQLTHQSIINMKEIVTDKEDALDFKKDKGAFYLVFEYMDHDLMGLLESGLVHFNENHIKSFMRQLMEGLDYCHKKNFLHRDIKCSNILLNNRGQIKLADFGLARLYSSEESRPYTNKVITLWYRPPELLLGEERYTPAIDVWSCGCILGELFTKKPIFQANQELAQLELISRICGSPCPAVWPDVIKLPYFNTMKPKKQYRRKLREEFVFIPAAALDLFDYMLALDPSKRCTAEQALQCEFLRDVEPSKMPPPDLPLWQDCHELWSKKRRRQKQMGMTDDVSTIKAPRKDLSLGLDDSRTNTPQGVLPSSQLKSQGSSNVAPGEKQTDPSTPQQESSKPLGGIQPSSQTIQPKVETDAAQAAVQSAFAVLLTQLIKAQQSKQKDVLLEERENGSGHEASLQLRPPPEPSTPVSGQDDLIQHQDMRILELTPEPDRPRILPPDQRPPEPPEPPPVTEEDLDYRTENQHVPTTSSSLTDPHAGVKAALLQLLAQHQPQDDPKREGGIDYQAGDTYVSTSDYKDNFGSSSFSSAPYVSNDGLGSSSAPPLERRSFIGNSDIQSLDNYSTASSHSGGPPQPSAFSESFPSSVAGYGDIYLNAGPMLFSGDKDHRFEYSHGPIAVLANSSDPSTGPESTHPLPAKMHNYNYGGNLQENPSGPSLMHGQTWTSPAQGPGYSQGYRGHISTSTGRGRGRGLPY

Cc1c(Br)c(Br)c2c3c1nc(N1CCNCC1)n3CCC2.Cl [SEL 120-34A]
CDK2/E1 Inhibition at 10µM (%) (CDK2/Cyclin E1; average of experiments): 22.7% | CDK2/E1 Inhibition at 10µM (%) (CDK2/Cyclin E1; independent experiment 1): 24.3% | CDK2/E1 Inhibition at 10µM (%) (CDK2/Cyclin E1; independent experiment 2): 21.2% | CDK3/E1 Inhibition at 10µM (%) (CDK3/Cyclin E1; average of experiments): 33.7% | CDK3/E1 Inhibition at 10µM (%) (CDK3/Cyclin E1; independent experiment 1): 26.5% | CDK3/E1 Inhibition at 10µM (%) (CDK3/Cyclin E1; independent experiment 2): 40.8% | CDK18/Y Inhibition at 10µM (%) (CDK18/Cyclin Y; average of experiments): 39.4% | CDK18/Y Inhibition at 10µM (%) (CDK18/Cyclin Y; independent experiment 1): 47.0% | CDK18/Y Inhibition at 10µM (%) (CDK18/Cyclin Y; independent experiment 2): 31.9% | CDK4/D1 Inhibition at 10µM (%) (CDK4/Cyclin D1; average of experiments): 37.4% | CDK4/D1 Inhibition at 10µM (%) (CDK4/Cyclin D1; independent experiment 1): 12.4% | CDK4/D1 Inhibition at 10µM (%) (CDK4/Cyclin D1; independent experiment 2): 62.4% | CDK6/D1 Inhibition at 10µM (%) (CDK6/Cyclin D1; average of experiments): 31.6% | CDK6/D1 Inhibition at 10µM (%) (CDK6/Cyclin D1; independent experiment 1): 10.1% | CDK6/D1 Inhibition at 10µM (%) (CDK6/Cyclin D1; independent experiment 2): 53.1% | CDK17/Y Inhibition at 10µM (%) (CDK17/Cyclin Y; average of experiments): 38.7% | CDK17/Y Inhibition at 10µM (%) (CDK17/Cyclin Y; independent experiment 1): 45.5% | CDK17/Y Inhibition at 10µM (%) (CDK17/Cyclin Y; independent experiment 2): 32.0% | CDK10/L2 Inhibition at 10µM (%) (CDK10/Cyclin L2; average of experiments): 33.9% | CDK10/L2 Inhibition at 10µM (%) (CDK10/Cyclin L2; independent experiment 1): 26.3% | CDK10/L2 Inhibition at 10µM (%) (CDK10/Cyclin L2; independent experiment 2): 41.4% | CDK20/H Inhibition at 10µM (%) (CDK20/Cyclin H; independent experiment 1): 7.8% | CDK20/H Inhibition at 10µM (%) (CDK20/Cyclin H; independent experiment 2): 31.3% | CDK11a/L2 Inhibition at 10µM (%) (CDK11A/Cyclin L2; average of experiments): 43.7% | CDK11a/L2 Inhibition at 10µM (%) (CDK11A/Cyclin L2; independent experiment 1): 31.1% | CDK11a/L2 Inhibition at 10µM (%) (CDK11A/Cyclin L2; independent experiment 2): 56.3% | CDK12/K Inhibition at 10µM (%) (CDK12/Cyclin K; average of experiments): 44.4% | CDK12/K Inhibition at 10µM (%) (CDK12/Cyclin K; independent experiment 1): 40.8% | CDK12/K Inhibition at 10µM (%) (CDK12/Cyclin K; independent experiment 2): 48.0% | CDK14/Y Inhibition at 10µM (%) (CDK14/Cyclin Y; average of experiments): 26.1% | CDK14/Y Inhibition at 10µM (%) (CDK14/Cyclin Y; independent experiment 1): 21.7% | CDK14/Y Inhibition at 10µM (%) (CDK14/Cyclin Y; independent experiment 2): 30.4% | CDK9/K Inhibition at 10µM (%) (CDK9/Cyclin K; average of experiments): 71.2% | CDK9/K Inhibition at 10µM (%) (CDK9/Cyclin K; independent experiment 1): 54.9% | CDK9/K Inhibition at 10µM (%) (CDK9/Cyclin K; independent experiment 2): 87.6% | CDK5/CDK5R1 Inhibition at 10µM (%) (CDK5/CDK5R1; average of experiments): 46.5% | CDK5/CDK5R1 Inhibition at 10µM (%) (CDK5/CDK5R1; independent experiment 1): 31.2% | CDK5/CDK5R1 Inhibition at 10µM (%) (CDK5/CDK5R1; independent experiment 2): 61.8% | CDK7 Inhibition at 10µM (%) (CDK7; average of experiments): 37.0% | CDK7 Inhibition at 10µM (%) (CDK7; independent experiment 1): 34.4% | CDK7 Inhibition at 10µM (%) (CDK7; independent experiment 2): 39.7% | CDK16/Y Inhibition at 10µM (%) (CDK16/Cyclin Y; independent experiment 1): 51.2% | CDK16/Y Inhibition at 10µM (%) (CDK16/Cyclin Y; independent experiment 2): 12.7% | CDK8/C Inhibition at 10µM (%) (CDK8/Cyclin C; average of experiments): 97.3% | CDK8/C Inhibition at 10µM (%) (CDK8/Cyclin C; independent experiment 1): 96.1% | CDK8/C Inhibition at 10µM (%) (CDK8/Cyclin C; independent experiment 2): 98.6% | IC50 (CDK8/Cyclin C; average (± SEM where n=3)): 75 nM | IC50 (CDK8/Cyclin C; independent experiment 1): 73 nM | IC50 (CDK8/Cyclin C; independent experiment 2): 77 nM | CDK11b/L2 Inhibition at 10µM (%) (CDK11B/Cyclin L2; average of experiments): 38.1% | CDK11b/L2 Inhibition at 10µM (%) (CDK11B/Cyclin L2; independent experiment 1): 35.0% | CDK11b/L2 Inhibition at 10µM (%) (CDK11B/Cyclin L2; independent experiment 2): 41.2% | CDK13/K Inhibition at 10µM (%) (CDK13/Cyclin K; average of experiments): 36.8% | CDK13/K Inhibition at 10µM (%) (CDK13/Cyclin K; independent experiment 1): 29.4% | CDK13/K Inhibition at 10µM (%) (CDK13/Cyclin K; independent experiment 2): 44.2% | CDK15/Y Inhibition at 10µM (%) (CDK15/Cyclin Y; average of experiments): 37.3% | CDK15/Y Inhibition at 10µM (%) (CDK15/Cyclin Y; independent experiment 1): 38.3% | CDK15/Y Inhibition at 10µM (%) (CDK15/Cyclin Y; independent experiment 2): 36.3% | CDK1/E1 Inhibition at 10µM (%) (CDK1/Cyclin E1; average of experiments): 37.6% | CDK1/E1 Inhibition at 10µM (%) (CDK1/Cyclin E1; independent experiment 1): 21.0% | CDK1/E1 Inhibition at 10µM (%) (CDK1/Cyclin E1; independent experiment 2): 54.1% | CDK19/C Inhibition at 10µM (%) (CDK19/Cyclin C; average of experiments): 99.2% | CDK19/C Inhibition at 10µM (%) (CDK19/Cyclin C; independent experiment 1): 96.4% | CDK19/C Inhibition at 10µM (%) (CDK19/Cyclin C; independent experiment 2): 102.0% | IC50 (CDK19/Cyclin C; read-out: CDK19/C IC50, independent experiment 1): 120 nM | IC50 (CDK19/Cyclin C; read-out: CDK19/C IC50, independent experiment 2): 140 nM | IC50 (CDK19/Cyclin C; read-out: CDK19/Y IC50, average (± SEM where n=3)): 130 nM

Reference: article PMC7265341, “Quantifying CDK inhibitor selectivity in live cells” (Nature Communications, 2020)
